According to patent US12686687B2, “Compounds and uses thereof” (Foghorn Therapeutics Inc., priority 2019, dated 2026):

How the values were obtained:
[1] = molecular target: T1, BRD9 bromodomain (Flag-BRD9 P133-K239; Swiss Prot Q9H8M2) (Homo sapiens, UniProt Q9H8M2); test: BRD9 bromodomain TR-FRET competition binding assay; conditions: 3 nM Flag-BRD9, 3.75 nM biotinylated ligand, 90 minutes at room temperature
T1 construct: His-Flag-BRD9 (P133-K239); Swiss Prot Q9H8M2; His6 with TEV site (mgsshhhhhhenlyfq/) (N, cleaved yes); made in house
T1 sequence (Q9H8M2 133-239): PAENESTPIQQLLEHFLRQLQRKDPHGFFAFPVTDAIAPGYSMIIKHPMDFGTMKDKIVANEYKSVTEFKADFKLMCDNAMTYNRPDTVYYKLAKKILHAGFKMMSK
Method: Cleaved His tag was removed by purification. […] DMSO or 3-fold serially diluted compounds were then added to the Proxiplate followed by addition of Flag-BRD9. After a 10-minute incubation at room temperature, Eu-W1024 anti-FLAG (PerkinElmer, AD0273) was added.

[2] = molecular target: T2, Nanoluciferase-BRD9 fusion protein (3×FLAG-NLuc-BRD9) in SYO-1 cells (Homo sapiens, UniProt Q9H8M2); test: SYO1 BRD9 NanoLuc degradation assay; assay type: cell-based; conditions: 6 hours treatment, 1 μM top dose; read-out: SYO1 BRD9-NanoLuc degradation IC50
T2 construct: expressed in transfected cells; host or cells: SYO-1
T2 sequence (Q9H8M2 1-597): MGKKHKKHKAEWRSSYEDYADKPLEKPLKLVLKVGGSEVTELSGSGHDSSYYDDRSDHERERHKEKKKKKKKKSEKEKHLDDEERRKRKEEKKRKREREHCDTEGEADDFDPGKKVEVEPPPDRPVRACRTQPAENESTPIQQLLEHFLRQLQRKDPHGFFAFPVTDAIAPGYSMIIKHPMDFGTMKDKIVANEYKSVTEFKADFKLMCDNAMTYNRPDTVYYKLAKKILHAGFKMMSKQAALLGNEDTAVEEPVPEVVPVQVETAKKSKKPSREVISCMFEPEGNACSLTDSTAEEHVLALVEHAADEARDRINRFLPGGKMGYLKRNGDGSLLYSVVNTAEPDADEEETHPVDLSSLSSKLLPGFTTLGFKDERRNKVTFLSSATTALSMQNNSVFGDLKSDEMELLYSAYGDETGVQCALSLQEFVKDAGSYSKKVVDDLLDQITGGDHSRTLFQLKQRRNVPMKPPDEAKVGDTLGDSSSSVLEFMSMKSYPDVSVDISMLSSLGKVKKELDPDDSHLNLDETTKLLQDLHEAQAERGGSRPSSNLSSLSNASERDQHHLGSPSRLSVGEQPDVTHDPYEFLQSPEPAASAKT
Summary of the method: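 Stable SYO-1 line expressing 3×FLAG-NLuc-BRD9 was seeded at 8000 cells/well, then treated next day for 6 h with 10-point 3-fold dilutions (top 1 μM final). Nano-Glo luminescence was read. % inhibition was normalised to DMSO (high control) and 1 μM reference BRD9 degrader (low control).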

| IC50 [1] | DC50 [2] | SMILES |
| --- | --- | --- |
| > 10 nM | > 1000 nM | COc1cc(-c2cn(C)c(=O)c3cc(NC(=O)C4CCCN(CCCCCOc5cccc6c5C(=O)N(C5CCC(=O)NC5=O)C6=O)C4)sc23)cc(OC)c1CN(C)C (centres unmarked) [Compound D9, N-(7-[4-[(dimethylamino)methyl]-3,5-dimethoxyphenyl]-5-methyl-4-oxothieno[3,2-c]pyridin-2-yl)-1-(5-[[2-(2,6-dioxopiperidin-3-yl)-1,3-dioxoisoindol-4-yl]oxy]pentyl)piperidine-3-carboxamide] |
| > 100 nM | > 1000 nM | COc1cc(-c2cn(C)c(=O)c3cc(NC(=O)C4CCCN(C(=O)CCOCCOCCNc5cccc6c5C(=O)N(C5CCC(=O)NC5=O)C6=O)C4)sc23)cc(OC)c1CN(C)C (centres unmarked) [Compound D5, N-(7-[4-[(dimethylamino)methyl]-3,5-dimethoxyphenyl]-5-methyl-4-oxothieno[3,2-c]pyridin-2-yl)-1-[3-[2-(2-[[2-(2,6-dioxopiperidin-3-yl)-1,3-dioxoisoindol-4-yl]amino]ethoxy)ethoxy]propanoyl]piperidine-3-carboxamide] |
| < 10 nM | > 1000 nM | COc1cc(-c2cn(C)c(=O)c3cc(NC(=O)C4CCN(CCCCCOc5cccc6c5C(=O)N(C5CCC(=O)NC5=O)C6=O)CC4)sc23)cc(OC)c1CN(C)C (centres unmarked) [Compound D6, N-(7-[4-[(dimethylamino)methyl]-3,5-dimethoxyphenyl]-5-methyl-4-oxothieno[3,2-c]pyridin-2-yl)-1-(5-[[2-(2,6-dioxopiperidin-3-yl)-1,3-dioxoisoindol-4-yl]oxy]pentyl)piperidine-4-carboxamide] |
| > 10 nM | > 10 nM | COc1cc(-c2cn(C)c(=O)c3cc(NC(=O)C4CCN(C(=O)CCOCCOCCNc5cccc6c5C(=O)N(C5CCC(=O)NC5=O)C6=O)CC4)sc23)cc(OC)c1CN(C)C (centres unmarked) [Compound D4, N-(7-[4-[(dimethylamino)methyl]-3,5-dimethoxyphenyl]-5-methyl-4-oxothieno[3,2-c]pyridin-2-yl)-1-[3-[2-(2-[[2-(2,6-dioxopiperidin-3-yl)-1,3-dioxoisoindol-4-yl]amino]ethoxy)ethoxy]propanoyl]piperidine-4-carboxamide] |
| > 100 nM | > 100 nM | COc1cc(-c2cn(C)c(=O)c3cc(NC(=O)[C@@H]4CCCN(C(=O)CCCCOc5cccc6c5C(=O)N(C5CCC(=O)NC5=O)C6=O)C4)sc23)cc(OC)c1CN(C)C (stereo partly drawn) [Compound D7, (3R)—N-(7-[4-[(dimethylamino)methyl]-3,5-dimethoxyphenyl]-5-methyl-4-oxothieno[3,2-c]pyridin-2-yl)-1-(5-[[2-(2,6-dioxopiperidin-3-yl)-1,3-dioxoisoindol-4-yl]oxy]pentanoyl)piperidine-3-carboxamide] |
| < 10 nM | < 10 nM | COc1cc(-c2cn(C)c(=O)c3cc(C(=O)NC4CCN(C(=O)CCCCOc5cccc6c5C(=O)N(C5CCC(=O)NC5=O)C6=O)CC4)sc23)cc(OC)c1CN(C)C (centres unmarked) [Compound D10, 7-(4-((dimethylamino)methyl)-3,5-dimethoxyphenyl)-N-(1-(5-((2-(2,6-dioxopiperidin-3-yl)-1,3-dioxoisoindolin-4-yl)oxy)pentanoyl)piperidin-4-yl)-5-methyl-4-oxo-4,5-dihydrothieno[3,2-c]pyridine-2-carboxamide] |
| < 10 nM | < 10 nM | COc1cc(-c2cn(C)c(=O)c3cc(NC(=O)C4CCN(C(=O)CCCCOc5cccc6c5C(=O)N(C5CCC(=O)NC5=O)C6=O)CC4)sc23)cc(OC)c1CN(C)C (centres unmarked) [Compound D12, N-(7-[4-[(dimethylamino)methyl]-3,5-dimethoxyphenyl]-5-methyl-4-oxothieno[3,2-c]pyridin-2-yl)-1-(5-[[2-(2,6-dioxopiperidin-3-yl)-1,3-dioxoisoindol-4-yl]oxy]pentanoyl)piperidine-4 carboxamide] |
| > 100 nM | > 1000 nM | COc1cc(-c2cn(C)c(=O)c3cc(NC(=O)C4CCN(C)CC4)sc23)cc(OC)c1CN(C)CC(=O)NCCOCCOc1cccc2c1C(=O)N(C1CCC(=O)NC1=O)C2=O (centres unmarked) [Compound D1, N-[7-(4-[[([[2-(2-[[2-(2,6-dioxopiperidin-3-yl)-1,3-dioxoisoindol-4-yl]oxy]ethoxy)ethyl]carbamoyl]methyl)(methyl)amino]methyl]-3,5-dimethoxyphenyl)-5-methyl-4-oxothieno[3,2-c]pyridin-2-yl]-1-methylpiperidine-4-carboxamide] |
| < 10 nM | > 1000 nM | COc1cc(-c2cn(C)c(=O)c3cc(C(=O)NC4CCN(CCCCCOc5cccc6c5C(=O)N(C5CCC(=O)NC5=O)C6=O)CC4)sc23)cc(OC)c1CN(C)C (centres unmarked) [Compound D11, 7-(4-((dimethylamino)methyl)-3,5-dimethoxyphenyl)-N-(1-(5-((2-(2,6-dioxopiperidin-3-yl)-1,3-dioxoisoindolin-4-yl)oxy)pentyl)piperidin-4-yl)-5-methyl-4-oxo-4,5-dihydrothieno[3,2-c]pyridine-2-carboxamide] |
| < 10 nM | < 10 nM | COc1cc(-c2cn(C)c(=O)c3cc(C(=O)NC4CCN(CCCCCOc5cccc6c5C(=O)N(C5CCC(=O)NC5=O)C6=O)CC4(F)F)sc23)cc(OC)c1CN(C)C (centres unmarked) [Compound D13, 7-[4-[(dimethylamino)methyl]-3,5-dimethoxyphenyl]-N-[1-(5-[[2-(2,6-dioxopiperidin-3-yl)-1,3-dioxoisoindol-4-yl]oxy]pentyl)-3,3-difluoropiperidin-4-yl]-5-methyl-4-oxothieno[3,2-c]pyridine-2-carboxamide] |
| > 100 nM | > 100 nM | COc1cc(-c2cn(C)c(=O)c3cc(NC(=O)[C@H]4CCCN(C(=O)CCCCOc5cccc6c5C(=O)N(C5CCC(=O)NC5=O)C6=O)C4)sc23)cc(OC)c1CN(C)C (stereo partly drawn) [Compound D8, (3S)—N-(7-[4-[(dimethylamino)methyl]-3,5-dimethoxyphenyl]-5-methyl-4-oxothieno[3,2-c]pyridin-2-yl)-1-(5-[[2-(2,6-dioxopiperidin-3-yl)-1,3-dioxoisoindol-4-yl]oxy]pentanoyl)piperidine-3-carboxamide] |
| < 10 nM | < 10 nM | COc1cc(-c2cn(C)c(=O)c3cc(C(=O)NC4CCN(CCCCCOc5ccc6c(c5)C(=O)N(C5CCC(=O)NC5=O)C6=O)CC4(F)F)sc23)cc(OC)c1CN(C)C (centres unmarked) [Compound D15, 7-[4-[(dimethylamino)methyl]-3,5-dimethoxyphenyl]-N-[1-(5-[[2-(2,6-dioxopiperidin-3-yl)-1,3-dioxoisoindol-5-yl]oxy]pentyl)-3,3-difluoropiperidin-4-yl]-5-methyl-4-oxothieno[3,2-c]pyridine-2-carboxamide] |
| > 10 nM | < 10 nM | Cn1cc(-c2ccc(OCC(=O)NCCCCCCCCNc3cccc4c3C(=O)N(C3CCC(=O)NC3=O)C4=O)c(C(F)(F)F)c2)c2sc(C(=N)NC3CCS(=O)(=O)CC3)cc2c1=O (centres unmarked) [Compound D3, 2-(4-[2-[N-(1,1-dioxo-1λ6-thian-4-yl)carbamimidoyl]-5-methyl-4-oxo-4H,5H-thieno[3,2-c]pyridin-7-yl]-2-(trifluoromethyl)phenoxy)-N-(8-[[2-(2,6-dioxopiperidin-3-yl)-1,3-dioxo-2,3-dihydro-1H-isoindol-4-yl]amino]octyl)acetamide] |
